Laboratory results taken from PubChem BioAssay (NCI).
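Following 48 hours of exposure in 96-well plates, responses at five concentrations were used to interpolate endpoints linearly. The concentration for full growth arrest is given as TGI.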

Experiments:
Assay in all cases: NCI anticancer screen, dose series, 48 h
OVCAR-3 ovarian = system: OVCAR-3 ovarian
SK-MEL-2 melanoma = system: SK-MEL-2 melanoma
LOX IMVI melanoma = system: LOX IMVI melanoma
A549 NSCLC = system: A549 NSCLC
MCF7 breast = system: MCF7 breast
U251 CNS = system: U251 CNS
HCT-116 colon = system: HCT-116 colon
HT29 colon = system: HT29 colon
KM12 colon = system: KM12 colon
SK-MEL-28 melanoma = system: SK-MEL-28 melanoma
SNB-19 CNS = system: SNB-19 CNS
SF-295 CNS = system: SF-295 CNS
UACC-62 melanoma = system: UACC-62 melanoma
SK-OV-3 ovarian = system: SK-OV-3 ovarian
EKVX NSCLC = system: EKVX NSCLC
HOP-62 NSCLC = system: HOP-62 NSCLC
MOLT-4 leukemia = system: MOLT-4 leukemia
SR leukemia = system: SR leukemia
MDA-MB-435 = system: MDA-MB-435
RPMI-8226 leukemia = system: RPMI-8226 leukemia

Compound | TGI (OVCAR-3 ovarian) [µM] | TGI (SK-MEL-2 melanoma) [µM] | TGI (LOX IMVI melanoma) [µM] | TGI (A549 NSCLC) [µM] | TGI (MCF7 breast) [µM] | TGI (U251 CNS) [µM] | TGI (HCT-116 colon) [µM] | TGI (HT29 colon) [µM] | TGI (KM12 colon) [µM] | TGI (SK-MEL-28 melanoma) [µM] | TGI (SNB-19 CNS) [µM] | TGI (SF-295 CNS) [µM] | TGI (UACC-62 melanoma) [µM] | TGI (SK-OV-3 ovarian) [µM] | TGI (EKVX NSCLC) [µM] | TGI (HOP-62 NSCLC) [µM] | TGI (MOLT-4 leukemia) [µM] | TGI (SR leukemia) [µM] | TGI (MDA-MB-435) [µM] | TGI (RPMI-8226 leukemia) [µM]
Nc1ccc2c(=O)cc(-c3cccs3)[nH]c2n1 | > 100 | > 100 | > 45.4 | > 37.5 | > 100 | > 45.6 | > 50.8 | > 72 | > 100 | > 100 | > 100 | > 53.4 | > 100 | > 100 | > 100 | > 100 | > 35.5 | > 34 |  | 
CC(C)(Oc1ccccc1)C(=O)Sc1c(-c2ccccc2)c(=O)n(-c2ccccc2)c(=S)n1-c1ccccc1 | 96.4 |  | > 100 | > 100 | > 100 | 56.5 | > 100 | > 100 | 64.7 | > 100 | > 100 | > 100 | > 100 | 87.1 | > 100 | 52.8 | > 100 | 57.8 | 52.4 | 
CC(=O)O/C=C1/C[C@H]2[C@@H]3CCC4CC(C(C)=O)CC[C@]4(C)[C@H]3CC[C@]2(C)C1=O (stereo partly drawn) | 97.3 | > 100 | > 100 |  | > 100 | > 100 | > 100 | > 100 | 93.3 | > 100 | > 100 | > 100 | > 100 | > 100 | > 100 | > 100 | > 100 | > 100 | > 100 | 
CC(NO)/C(=N/O)c1ccco1 (stereo not drawn) | > 10 | > 10 |  | > 10 | > 10 | > 10 | > 10 | > 10 | > 10 |  | > 10 | > 10 |  |  | > 10 | > 10 | > 10 | > 10 | > 10 | > 10
CSC1=Nc2ccccc2-c2nc3ccccc3cc2C1 | > 100 | > 100 | > 100 | > 100 | > 100 | > 100 | > 100 | > 100 | > 100 | > 100 | > 100 | > 100 | > 100 | > 100 | > 100 | > 100 | > 100 | > 100 | > 100 | 
Cc1c(CCN2CCOCC2)c(N2CCOCC2)n2c(nc3ccccc32)c1C#N | > 10 |  | > 10 | > 10 | > 10 | > 10 | > 10 | > 10 | > 10 | > 10 | > 10 | > 10 | > 10 | > 10 | > 10 | > 10 | > 10 | > 10 | > 10 | > 10
CCCSc1ccc2[nH]c(/N=C/c3ccccc3)cc2c1 | 60.3 | 32.2 | 32.5 |  |  |  | 39.8 | > 100 |  | 90.7 |  |  | 35 |  | 76.2 |  | 55.9 | 27.8 | > 100 | 48.3
CCN(CC)CCC(=O)c1ccc(C)cc1 | 33.1 |  | > 100 | > 100 | 17.4 | > 100 | 36.8 | 49.6 |  | 29.9 | > 100 | > 100 | > 100 | > 100 | 86.8 | > 100 | 52.2 | 82.6 | 33.6 | 
CCCCCCCCCCCCN1[C@H]2CCC[C@H]2C(O)[C@@H]2CCC[C@@H]21 (stereo partly drawn) | > 100 | > 100 | > 100 | > 100 |  | > 100 | > 100 | > 100 | > 100 | > 100 | > 100 |  | > 100 | > 100 |  | > 100 | > 100 | > 100 | > 100 | > 100
COc1cccc(C2c3cc4c(cc3OC(N3CCOCC3)C2C)OCO4)c1OC (stereo not drawn) | 36.7 | 25.5 | 12.6 | > 100 | > 100 |  | 15.7 | 15.8 | 36.2 | 32 | 24.2 | 32.9 | 85.5 |  | > 100 | 31.6 | 20 | 24.4 | 33.8 | 24.1
CC1C/C(=C\c2ccc(OC(=O)C(C)(C)C)cc2)C(=O)/C(=C/c2ccc(OC(=O)C(C)(C)C)cc2)C1 (stereo not drawn) | > 100 | > 100 | > 100 | > 100 | > 100 | > 100 | > 100 | > 100 | > 100 | > 100 | > 100 | > 100 | > 100 | > 100 | > 100 | > 100 | 37.7 | > 100 | > 100 | 
Nc1nc(N)c2cc(-c3ccccc3)cnc2n1 | 35.8 | > 100 | 37.6 | 28 | 44.1 | 42 | 17.3 | 21 | 30.1 | 35 | 38.3 | 33 |  | > 100 | 45.1 | 40.9 | 28.3 | 21.2 |  | 48.9
O=C(CC(C(=O)c1cccs1)c1cccs1)c1ccsc1 (stereo not drawn) |  | > 100 | > 100 | > 100 | > 100 | > 100 | > 100 | > 100 | > 100 | > 100 | > 100 |  | > 100 | > 100 | > 100 | > 100 | > 100 | > 100 | 43.1 | > 100
C=CC1CCC[N+]1(CC(=O)OCC)Cc1ccccc1 (stereo not drawn) | > 100 |  |  | > 100 | > 100 | > 100 | > 100 | > 100 |  | > 100 | > 100 | > 100 | > 100 | > 100 | > 100 | > 100 | > 100 | > 100 | > 100 | > 100
C1CCCCC2(CCCCCCCCC3(CCC1)OCCO3)OCCO2 | > 100 | > 100 | > 100 | > 100 | > 100 | > 100 | > 100 | > 100 | > 100 | > 100 | > 100 | > 100 | > 100 | > 100 | > 100 | > 100 |  | > 100 | > 100 | 
COc1ccc2nccc(SCC(=O)O)c2c1 | > 100 | > 100 | > 100 | > 100 |  | > 100 | > 100 | > 100 | > 100 | > 100 | > 100 | > 100 | > 100 |  | > 100 | > 100 | > 100 | > 100 | > 100 | > 100
O=C1CCCCCCCCCCC1CCCCCBr (stereo not drawn) | 44.7 | 32.4 | 37.8 | > 100 | 63.3 | 43.3 | 45.9 | 95.6 | 53.7 | 84.4 | 64.7 | > 100 | > 100 | > 100 | > 100 | > 100 | 33.6 | 44.1 | 97.7 | 
COc1cc(S(=O)(=O)Nc2nc(-c3ccc(N4C(=O)/C(=C/C=C/c5ccccc5)N=C4c4ccccc4)cc3)cs2)ccc1Cl | > 100 | > 100 | > 100 | > 100 | > 100 | > 100 | > 100 | > 100 | > 100 | > 100 | > 100 | > 100 | > 100 | > 100 |  | > 100 | > 100 | > 100 | > 100 | 
O=S(CC1(O)CCCCC1)c1ccccc1 (stereo not drawn) |  | > 100 | > 100 | > 100 | > 100 | > 100 | > 100 | > 100 | > 100 | > 100 | > 100 | > 100 | > 100 | > 100 | > 100 | > 100 | > 100 | > 100 |  | 2.32
Nc1c2ccccc2nc2ccc3c(=O)cc(-c4ccccc4)oc3c12 | 2.85 | 3.65 |  |  | 2.05 | 1.46 | 0.306 | 1.86 | 2.16 | 3.21 |  |  |  | 3.48 | 2.8 |  |  | 2.23 | 2.39 | 0.697
O=S(=O)(c1ccccc1)C(c1ccc2ccccc2n1)S(=O)(=O)c1ccccc1 | > 100 |  | > 100 | > 100 | > 100 | > 100 | > 100 | > 100 | > 100 | > 100 | > 100 | > 100 |  |  | > 100 | > 100 | > 100 | > 100 |  | > 100
O=c1c2cc(-c3ccccc3)sc2nc2n1N=C(c1ccc(Cl)cc1)CS2 | > 100 |  | > 100 | > 100 | > 100 | > 100 | > 100 | > 100 | > 100 | > 100 |  | > 100 | > 100 | > 100 | > 100 | > 100 | > 100 | > 100 | > 100 | > 100
N#Cc1c(=O)c2ccccc2n2c1[nH]c1ccccc12 | > 100 | > 100 | > 100 | > 100 | > 100 | > 100 | > 100 | > 100 | > 100 | > 100 | > 100 | > 100 | > 100 |  | > 100 | > 100 | > 100 | 43.8 | > 100 | > 100
Oc1c(Cl)c(Cl)c(O)c(CCNc2ccc3ncccc3c2)c1Cl | 35 | 22.8 |  | 47.3 | 30.8 | 36.8 | 41.9 | 88.4 | 15.9 | 54.6 | 32.3 | 24.1 | 23.8 | 27.6 | 36 | 27.7 | > 100 | 28 | 18.8 | 
Nc1nc(Cl)c(/C=N\O)c(NCC2(CO)CCC2)n1 | > 100 |  | > 100 | > 100 | > 100 | > 100 | > 100 | > 100 | 18.3 | > 100 | > 100 | > 100 |  |  | > 100 | > 100 | 81.2 | > 100 | > 100 | > 100
CC(O)c1cc2c(s1)C(=O)c1ccsc1C2=O (stereo not drawn) | 0.169 | 0.264 |  | 0.373 | 0.32 | 0.415 | 2.72 |  | 1.2 | 0.0328 | 0.553 | 0.18 | 0.0733 | 5.46 | 0.551 | 0.283 | 0.594 | 0.392 | 0.026 | 0.416
O=C1/C(=C/c2ccc(OC(=O)c3ccccc3)cc2)CCC/C1=C\c1ccc(OC(=O)c2ccccc2)cc1 | > 100 | > 100 | > 100 | > 100 | > 100 | > 100 | > 100 | > 100 | > 100 | > 100 | > 100 | > 100 | > 100 |  | > 100 | > 100 | > 100 | > 100 | > 100 | > 100
